Here are results for five molecules from patent US20220144850A1, “INDOLO HEPTAMYL OXIME ANALOGUE AS PARP INHIBITOR” (Chia Tai Tianqing Pharmaceutical Group Co., Ltd., priority 2019, published 2022).

Series [1] can be described thus: Plasma protein binding rate, human plasma (equilibrium dialysis). Format: in vitro ADME. The note with it: dialysis 4 h at 37° C. How it is done:
Experimental Example 5: Study on Plasma Protein Binding Rate
The protein binding rates of the compounds disclosed herein in plasma of human, CD-1 mice and SD rats were determined. 796 μL of blank plasma was taken from human, CD-1 mice and SD rats, and added with 4 μL of test compound working solution (400. μM) or warfarin working solution (400 μM) to achieve a final concentration of 2 μM of both the test compound and the warfarin in the plasma sample. The samples were mixed well. The final concentration of organic phase DMSO was 0.5%; 50 μL of test compound and warfarin plasma sample was pipetted into a sample receiving plate (three parallels), and a corresponding volume of blank plasma or buffer was immediately added such that the final volume of each sample well was 100 μL. The volume ratio of plasma to dialysis buffer was 1:1, and 400 μL of stop solution was added to these samples, which were used as TO samples for determination of recovery rate and stability. The TO samples were stored at 2-8° C. for subsequent treatment with other dialyzed samples; 150 μL of the test compound and warfarin plasma sample was added to a drug delivery end of each dialysis well, and 150 μL of blank dialysis buffer was added to a corresponding receiving end of the dialysis well. The dialysis plate was then sealed with a gas permeable membrane and placed in a humid, 5% CO2 incubator and incubated at 37° C. for 4 h while shaking at about 100 rpm. After the dialysis was completed, 50 μL of the dialyzed buffer sample and dialyzed plasma sample were pipetted to a new sample receiving plate. A corresponding volume of corresponding blank plasma or buffer was added to the samples such that the final volume of each sample well was 100 μL, and the volume ratio of plasma to dialysis buffer was 1:1. All samples were subjected to LC/MS analysis after protein precipitation, and the protein binding rates and the recovery rates were calculated by the following formulas: protein unbinding rate (%)=100×drug concentration passing through dialysis membrane/drug concentration not passing through dialysate; protein binding rate (%)=100−protein unbinding rate (%); recovery rate (%)=100×(drug concentration passing through dialysis membrane+drug concentration not passing through dialysate)/total drug concentration before dialysis.

For series [2], the system named is BRCA1-mutated MDA-MB-436 cells. The experiment in a line: Anti-proliferation experiment on MDA-MB-436 CTG cells. Format: cell-based, human. The note with it: 7 days incubation, CellTiter-Glo. How it is done: Experimental Example 2: Anti-Proliferation Experiment on MDA-MB-436 CTG Cells
Experimental materials: test compounds; RPMI-1640 medium; fetal bovine serum; penicillin/streptomycin antibiotic; MDA-MB-436 cell line; Envision multi-marker analyzer (PerkinElmer).
MDA-MB-436 cells were seeded in a white 96-well plate by adding 80 μL of cell suspension (containing 3000 MDA-MB-436 cells) to each well. The cell plate was incubated in a CO2 incubator overnight.
Test compounds were serially 5-fold diluted to the 8th concentration with a multichannel pipette, i.e. from 2 mM to 26 nM, and a duplicate well experiment was performed. 78 μL of medium was added to a intermediate plate, 2 μL of each of serially diluted compounds was transferred to corresponding wells of the intermediate plate, and after mixing, the mixture was transferred to the cell plate at 20 μL per well. The cell plate was incubated in a CO2 incubator for 7 days. Another cell plate was provided for reading signal values on the day of compound addition and these signal values were used as Max values in data analysis. Promega CellTiter-Glo was added to this cell plate at 25 μL per well and the luminescence signals were stabilized by incubation for 10 min at room temperature. Readings were taken using a PerkinElmer Envision multi-marker analyzer.
Promega CellTiter-Glo was added to the cell plate at 25 μL per well and the luminescence signals were stabilized by incubation for 10 min at room temperature. Readings were taken using a PerkinElmer Envision multi-marker analyzer.
2. Data analysis: the original data was converted to inhibition using the equation (sample−Min)/(Max−Min)×100%, and the IC50 value was then curve fitted using four parameters (obtained from the “log(inhibitor) vs. response-variable slope” model in GraphPad Prism). Table 2 provides the inhibitory activity of the compounds disclosed herein against MDA-MB-436 cell proliferation.

The nature of series [3]: Single-dose pharmacokinetic study in mice. Format: in vivo. The note with it: male C57BL/6 mice; for Maximum concentration / bioavailability / clearance / half-life / Vd: IV: 1 mg/kg PO: 5 mg/kg; for bioavailability / clearance / half-life / Vd / AUC(0-t): mouse, plasma; for Vd: read-out: Apparent volume of distribution. An excerpt:
Experimental Example 8: Single-Dose Pharmacokinetic Study in Mice
Experimental objective: to evaluate the pharmacokinetic behavior by using male C57BL/6 mice as test animals and determining the drug concentrations of the compounds in the plasma, liver and cerebrospinal fluid after single-dose administration.
Experimental method: healthy adult male C57BL/6 mice were selected for intragastric administration. A candidate compound was mixed with an appropriate amount of 10% DMSO/90% (20% hydroxypropyl-β-cyclodextrin), vortexed and sonicated to prepare a 0.5 mg/mL clear solution for later use. After the mice were administered intravenously at 1 mg/kg and orally at 5 mg/kg, whole blood was collected at certain time points, and plasma was separated, and liver and cerebrospinal fluid were collected. After pretreatment of the samples, the drug concentration was measured by LC-MS/MS, and pharmacokinetic parameters were calculated using Phoenix WinNonlin software.

Where [4] appears, read: Homo sapiens, MDA-MB-436, 168 h.
[5] abbreviates: intravenous 1 mg/kg, read-out: AUC0-last (intravenous injection).
Where [6] appears, read: oral 5 mg/kg, read-out: AUC0-last (oral).

Where two headings read alike, the source gives them in different places.

By fraction unbound is commonly meant free concentration divided by total concentration. Low values mean extensive binding, high ones weak binding. In general, IC50 refers to the concentration that inhibits the measured activity by half. Low values mean greater potency in that assay, high ones weaker potency in that assay. As usually defined, the bioavailability is dose-corrected exposure relative to a reference, in per cent. The low end stands for little systemic uptake, the high end for much systemic uptake. One may read the half-life as the time in which the quantity being followed falls by half. The low end stands for rapid decline, the high end for slow decline. In the case of `CC1(c2ccc(-c3[nH]c4cc(F)cc5c4c3CONC5=O)cc2)CCCN1` (stereo not shown) [Example 25_A], the free fraction (fraction unbound) at 4 h, 2 μM in series [1] is 0.149. This molecule returned an IC50 in series [2] (setting [4]) of 12.3 nM. In series [3], the Maximum concentration amounted to 240 nM, the bioavailability is 24.8%, the clearance turned out to be 41 mL/min/kg and the half-life is 3.02 h. In addition, the Vd in series [3] is 9.44 L/kg. Further, the AUC(0-t) in series [3] (setting [5]) was 0.958 µM·h. For the same molecule, the AUC(0-t) in series [3] (setting [6]) amounted to 1.19 µM·h.
Molecule `CC1(c2ccc(-c3[nH]c4cc(F)cc5c4c3CONC5=O)cc2F)CCCN1` (single isomer, unassigned) [Example 26_A] had a fraction unbound at 4 h, 2 μM in series [1] of 0.057. In series [2], this molecule yielded an IC50 of 8.4 nM. In series [3], this molecule showed a Maximum concentration of 285 nM, a bioavailability of 37.9%, a clearance of 60.7 mL/min/kg and a half-life of 2.15 h. The Vd in series [3] turned out to be 8.22 L/kg. The AUC(0-t) in series [3] (setting [5]) came out at 0.679 µM·h. In addition, the AUC(0-t) in series [3] (setting [6]) is 1.29 µM·h.
The molecule `O=C1NOCc2c(-c3ccc(C4CCCN4)c(F)c3)[nH]c3cccc1c23` (stereo not shown) [Example 11_A] showed a fraction unbound at 4 h, 2 μM in series [1] of 0.235. This molecule also displayed an IC50 in series [2] (setting [4]) of 70.2 nM.
`O=C1NOCc2c(-c3ccc(C4CCCN4)cc3)[nH]c3cc(F)cc1c23` (single isomer, unassigned) [Example 24_A] gave a fraction unbound at 4 h, 2 μM in series [1] of 0.073. This molecule also yielded an IC50 in series [2] of 9.6 nM. Besides, in series [3], the Maximum concentration amounted to 433 nM, the bioavailability stood at 21.2%, the clearance is 34.9 mL/min/kg and the half-life was 2.03 h. Also, the Vd in series [3] stood at 4.21 L/kg. For the same molecule, the AUC(0-t) in series [3] (setting [5]) amounted to 1.3 µM·h. Also, the AUC(0-t) in series [3] (setting [6]) was determined as 1.38 µM·h.
`CC1(c2ccc(-c3[nH]c4cccc5c4c3CONC5=O)cc2)CCCN1` (stereo not shown) [Example 6_A] gave a fraction unbound at 4 h, 2 μM in series [1] of 0.181. The molecule also returned a 50% inhibitory concentration (IC50) in series [2] (setting [4]) of 16.9 nM.
